Test results from patent publication US20250352555A1, “METHOD OF INCREASING IMMUNE CELL ACTIVATION AND/OR TREATING CANCER USING DIBENZOXAZEPINONES” (VASCULAR THERAPEUTICS PTY LTD, priority 2022, published 2025).
“And” between values parts separate entries of the source, which are not always exact repeats. Identical values can stand only once.

System: Jurkat T cells
Experiment: RNA-seq of Jurkat T cells
Assay type: cell-based, human
Procedure: RNA-seq and bioinformatics analysis. Jurkat T cells were grown to confluence in 100 mm plates in complete medium and incubated with 10 μM BT2 or vehicle for 4 h. Total RNA was extracted using the RNeasy Mini Kit (Qiagen, cat. no. 74004) with modification. Briefly, cells were washed twice with pre-cooled 1×PBS and TRIzol reagent (Thermo Fisher Scientific cat. no. 15596026) was added to lyse the cells. Chloroform was added to the mixture before microfuge centrifugation at 13000 rpm for 15 min at 4° C. The upper aqueous layer containing total RNA was transferred to fresh microtubes, and isopropanol was added and loaded into RNeasy columns. Columns were washed with buffers RW1 and RPE. Total RNA was eluted from the column using ribonuclease-free water. Samples were submitted to the UNSW Ramaciotti Centre for Genomics for TruSeq Stranded mRNA-seq preparation and sequencing by One NextSeq 500 1×75 bp high-output flow cell with data output up to 400 M reads. Quality control of samples was set at >80% higher than Q30 at 1×75 bp.
RNA-seq reads were first assessed for quality using the tool FastQC (v0.11.8) www.bioinformatics.babraham.ac.uk/projects/fastqc/). The tool Salmon was used for quantifying transcript abundance from RNA-seq reads (Patro et al., 2017). The R package DESeq2 that incorporates a method for differential analysis of count data was then used to identify differentially expressed genes across specific comparisons (Love et al., 2014). This package was also used to perform principal component analysis. […] The ggplot2 R package was used to prepare bar plots, scatter plots, and density plots. The pheatmap R package was used to generate distance matrices, and clustered heatmaps. DESeq2 output was used to generate a ranked list for input into GSEA Pre-ranked (v6.0.12, Broad Institute) (Subramanian et al., 2005) for pathway analysis against the Curated (Canonical Pathway), Gene Ontology, and Hallmarks gene collections from MSigDb (Liberzon et al., 2015; Liberzon et al., 2011). Ranked scores were calculated by multiplying the sign of the log 2 fold change by the log 10 transformed adjusted p value. […] All immune response related gene sets were selected for display.
To gain insights into BT2's mode of action we conducted next generation RNA sequencing (RNA-seq) with extracts of Jurkat T cells exposed to 10 μM BT2 for 4 h.

SMILES: CCOC(=O)Nc1ccc2c(c1)C(=O)N(CC)c1ccccc1O2 [BT2, (10-ethyl-11-oxo-10,11-dihydro-dibenzo[b,f][1,4]oxazepin-2-yl)-carbamic acid ethyl ester]
- ABCA4 gene expression, BT2 (10 μM BT2, 4 h, 3 replicates): 96.05 and 85.74 and 106.5
- ACTA2 gene expression, BT2 (10 μM BT2, 4 h, 3 replicates): 643.6 and 663.2 and 658.1
- ACTG2 gene expression, BT2 (10 μM BT2, 4 h, 3 replicates): 3514 and 3448 and 3526
- ADAT3 gene expression, BT2 Test 1-3 (10 μM BT2, 4 h, 3 replicates): 32.66 and 24.79 and 20.09
- ADCYAP1 gene expression, BT2 (10 μM BT2, 4 h, 3 replicates): 131.6 and 132.2 and 130.6
- ARHGAP29 gene expression, BT2 (10 μM BT2, 4 h, 3 replicates): 550.4 and 556.8 and 506.4
- ATF3 gene expression, BT2 (10 μM BT2, 4 h, 3 replicates): 975.9 and 937 and 1003
- BACH2 gene expression, BT2 (10 μM BT2, 4 h, 3 replicates): 6174.2608 and 6260 and 6009.3283
- CD248 gene expression, BT2 (10 μM BT2, 4 h, 3 replicates): 284.3 and 291.3 and 307.4
- CREB5 gene expression, BT2 (10 μM BT2, 4 h, 3 replicates): 179.6 and 175.6 and 152.7
- DMBT1 gene expression, BT2 (10 μM BT2, 4 h, 3 replicates): 193.1 and 180.8 and 166.8
- DUSP8 gene expression, BT2 (10 μM BT2, 4 h, 3 replicates): 826.1 and 821.3 and 847
- ENPP1 gene expression, BT2 (10 μM BT2, 4 h, 3 replicates): 2289 and 2283 and 2244
- EPAS1 gene expression, BT2 (10 μM BT2, 4 h, 3 replicates): 332.3 and 428.7 and 372.8
- FAM166A gene expression, BT2 Test 1-3 (10 μM BT2, 4 h, 3 replicates): 312.2 and 298.5 and 285.3
- FERMT2 gene expression, BT2 (10 μM BT2, 4 h, 3 replicates): 3161.0909 and 3299 and 3249
- FLNC gene expression, BT2 (10 μM BT2, 4 h, 3 replicates): 532.1 and 474.2 and 510.4
- GBP1 gene expression, BT2 (10 μM BT2, 4 h, 3 replicates): 6844 and 6940 and 6949
- GBP2 gene expression, BT2 (10 μM BT2, 4 h, 3 replicates): 343.9 and 332.6 and 320.5
- HIST1H2AC gene expression, BT2 Test 1-3 (10 μM BT2, 4 h, 3 replicates): 62.43 and 67.15 and 71.34
- HIST1H2AG gene expression, BT2 Test 1-3 (10 μM BT2, 4 h, 3 replicates): 51.87 and 40.29 and 74.35
- HIST2H2BE gene expression, BT2 Test 1-3 (10 μM BT2, 4 h, 3 replicates): 35.54 and 54.75 and 51.24
- IL2RA gene expression, BT2 (10 μM BT2, 4 h, 3 replicates): 168.1 and 193.2 and 169.8
- JUN gene expression, BT2 (10 μM BT2, 4 h, 3 replicates): 4079.3537 and 4087 and 4015
- JUND gene expression, BT2 (10 μM BT2, 4 h, 3 replicates): 7851.3391 and 7882 and 7703
- KCNMB1 gene expression, BT2 (10 μM BT2, 4 h, 3 replicates): 1036.4075 and 994.8 and 1082
- MAF gene expression, BT2 Test 1-3 (10 μM BT2, 4 h, 3 replicates): 49.95 and 50.62 and 48.23
- MYL4 gene expression, BT2 (10 μM BT2, 4 h, 3 replicates): 896.2 and 889.4 and 904.3
- NPAS4 gene expression, BT2 (10 μM BT2, 4 h, 3 replicates): 228.6 and 253.1 and 292.4
- NTN1 gene expression, BT2 (10 μM BT2, 4 h, 3 replicates): 0 and 193.2 and 146.7
- PRKCE gene expression, BT2 (10 μM BT2, 4 h, 3 replicates): 1433 and 1537 and 1488
- PRRT1 gene expression, BT2 Test 1-3 (10 μM BT2, 4 h, 3 replicates): 20.17 and 22.73 and 60.28
- SIRPB2 gene expression, BT2 (10 μM BT2, 4 h, 3 replicates): 112.4 and 120.9 and 128.6
- SPECC1L-ADORA2A gene expression, BT2 (10 μM BT2, 4 h, 3 replicates): 209.4 and 316.1 and 206
- TEAD3 gene expression, BT2 (10 μM BT2, 4 h, 3 replicates): 269.9 and 243.8 and 226.1
- TIMP3 gene expression, BT2 (10 μM BT2, 4 h, 3 replicates): 202.7 and 212.8 and 228.1
- TUBA1A gene expression, BT2 Test 1-3 (10 μM BT2, 4 h, 3 replicates): 4998 and 5147 and 5169
- TUBA1B gene expression, BT2 Test 1-3 (10 μM BT2, 4 h, 3 replicates): 50484.2833 and 49034.778 and 49379.7789
- TUBA1C gene expression, BT2 Test 1-3 (10 μM BT2, 4 h, 3 replicates): 9420 and 9004 and 9493
- TUBA4A gene expression, BT2 Test 1-3 (10 μM BT2, 4 h, 3 replicates): 33.62 and 39.26 and 48.23
- TUBB2A gene expression, BT2 Test 1-3 (10 μM BT2, 4 h, 3 replicates): 599.4 and 644.6 and 638
- TUBB3 gene expression, BT2 Test 1-3 (10 μM BT2, 4 h, 3 replicates): 651.2 and 705.6 and 639
- TUBB4B gene expression, BT2 Test 1-3 (10 μM BT2, 4 h, 3 replicates): 6034 and 5953 and 6048
- ZYX gene expression, BT2 (10 μM BT2, 4 h, 3 replicates): 3059 and 3209 and 3141
- ABCA4 log2Fold Change (10 μM BT2 vs vehicle, 4 h): 2.991
- ACTA2 log2Fold Change (10 μM BT2 vs vehicle, 4 h): 1.228
- ACTG2 log2Fold Change (10 μM BT2 vs vehicle, 4 h): 2.581
- ADAT3 log2Fold Change (10 μM BT2 vs vehicle, 4 h): −1.31
- ADCYAP1 log2Fold Change (10 μM BT2 vs vehicle, 4 h): 1.242
- ARHGAP29 log2Fold Change (10 μM BT2 vs vehicle, 4 h): 1.497
- ATF3 log2Fold Change (10 μM BT2 vs vehicle, 4 h): 1.019
- BACH2 log2Fold Change (10 μM BT2 vs vehicle, 4 h): 1.126
- CD248 log2Fold Change (10 μM BT2 vs vehicle, 4 h): 2.579
- CREB5 log2Fold Change (10 μM BT2 vs vehicle, 4 h): 1.577
- DMBT1 log2Fold Change (10 μM BT2 vs vehicle, 4 h): 1.424
- DUSP8 log2Fold Change (10 μM BT2 vs vehicle, 4 h): 3.811
- ENPP1 log2Fold Change (10 μM BT2 vs vehicle, 4 h): 2.594
- EPAS1 log2Fold Change (10 μM BT2 vs vehicle, 4 h): 1.187
- FAM166A log2Fold Change (10 μM BT2 vs vehicle, 4 h): −1.443
- FERMT2 log2Fold Change (10 μM BT2 vs vehicle, 4 h): 1.127
- FLNC log2Fold Change (10 μM BT2 vs vehicle, 4 h): 1.158
- GBP1 log2Fold Change (10 μM BT2 vs vehicle, 4 h): 1.317
- GBP2 log2Fold Change (10 μM BT2 vs vehicle, 4 h): 1.999
- HIST1H2AC log2Fold Change (10 μM BT2 vs vehicle, 4 h): −1.445
- HIST1H2AG log2Fold Change (10 μM BT2 vs vehicle, 4 h): −1.417
- HIST2H2BE log2Fold Change (10 μM BT2 vs vehicle, 4 h): −1.273
- IL2RA log2Fold Change (10 μM BT2 vs vehicle, 4 h): 2.06
- JUN log2Fold Change (10 μM BT2 vs vehicle, 4 h): 2.561
- JUND log2Fold Change (10 μM BT2 vs vehicle, 4 h): 1.29
- KCNMB1 log2Fold Change (10 μM BT2 vs vehicle, 4 h): 1.455
- MAF log2Fold Change (10 μM BT2 vs vehicle, 4 h): −1.032
- MYL4 log2Fold Change (10 μM BT2 vs vehicle, 4 h): 2.052
- NPAS4 log2Fold Change (10 μM BT2 vs vehicle, 4 h): 1.211
- NTN1 log2Fold Change (10 μM BT2 vs vehicle, 4 h): 6.501
- PRKCE log2Fold Change (10 μM BT2 vs vehicle, 4 h): 1.177
- PRRT1 log2Fold Change (10 μM BT2 vs vehicle, 4 h): −1.322
- SIRPB2 log2Fold Change (10 μM BT2 vs vehicle, 4 h): 1.912
- SPECC1L-ADORA2A log2Fold Change (10 μM BT2 vs vehicle, 4 h): 1.096
- TEAD3 log2Fold Change (10 μM BT2 vs vehicle, 4 h): 1.133
- TIMP3 log2Fold Change (10 μM BT2 vs vehicle, 4 h): 1.85
- TUBA1A log2Fold Change (10 μM BT2 vs vehicle, 4 h): −1.19
- TUBA1B log2Fold Change (10 μM BT2 vs vehicle, 4 h): −1.394
- TUBA1C log2Fold Change (10 μM BT2 vs vehicle, 4 h): −1.121
- TUBA4A log2Fold Change (10 μM BT2 vs vehicle, 4 h): −1.253
- TUBB2A log2Fold Change (10 μM BT2 vs vehicle, 4 h): −1.005
- TUBB3 log2Fold Change (10 μM BT2 vs vehicle, 4 h): −1.262
- TUBB4B log2Fold Change (10 μM BT2 vs vehicle, 4 h): −1.52
- ZYX log2Fold Change (10 μM BT2 vs vehicle, 4 h): 1.537
- effect on FOS like 2 expression (10 μM, 4 h): negligible effects
- effect on FOSB expression (10 μM, 4 h): negligible effects
- increase of DUSP8 mRNA expression (10 μM, 4 h): 14.1 fold
- increase of JUND levels (10 μM, 4 h): 2.4 fold
- increase of netrin-1 (NTN1) (10 μM, 4 h): 90.6 fold
- inhibition of MAF expression (10 μM, 4 h): 2 fold
- JUN induction (10 μM, within 4 h): 5.9 fold
